From ChEMBL document CHEMBL1129670, “Synthesis and structure-activity relationships of N-propyl-N-(4-pyridinyl)-1H-indol-1-amine (besipirdine) and related analogs as potential therapeutic agents for Alzheimer's disease” (J Med Chem, 1996)

Experiments:
[1] = species: Mus musculus; assay: animal or person
Description: Effective dose against administration in mice

[2] = biological target: Muscarinic acetylcholine receptor; format: cell membranes, Membrane
Description: Inhibition of [3H]quinuclidinyl benzilate (QNB) binding from rat forebrain membranes in the absence of Zn

[3] = biological target: Muscarinic acetylcholine receptor; format: cell membranes, Membrane; remark: listed apart in the source
Description: Inhibition of [3H]quinuclidinyl benzilate (QNB) binding from rat forebrain membranes in the presence of Zn

[4] = biological target: T1, Acetylcholinesterase (Rattus norvegicus, UniProt P37136)
T1 sequence (P37136 whole entry): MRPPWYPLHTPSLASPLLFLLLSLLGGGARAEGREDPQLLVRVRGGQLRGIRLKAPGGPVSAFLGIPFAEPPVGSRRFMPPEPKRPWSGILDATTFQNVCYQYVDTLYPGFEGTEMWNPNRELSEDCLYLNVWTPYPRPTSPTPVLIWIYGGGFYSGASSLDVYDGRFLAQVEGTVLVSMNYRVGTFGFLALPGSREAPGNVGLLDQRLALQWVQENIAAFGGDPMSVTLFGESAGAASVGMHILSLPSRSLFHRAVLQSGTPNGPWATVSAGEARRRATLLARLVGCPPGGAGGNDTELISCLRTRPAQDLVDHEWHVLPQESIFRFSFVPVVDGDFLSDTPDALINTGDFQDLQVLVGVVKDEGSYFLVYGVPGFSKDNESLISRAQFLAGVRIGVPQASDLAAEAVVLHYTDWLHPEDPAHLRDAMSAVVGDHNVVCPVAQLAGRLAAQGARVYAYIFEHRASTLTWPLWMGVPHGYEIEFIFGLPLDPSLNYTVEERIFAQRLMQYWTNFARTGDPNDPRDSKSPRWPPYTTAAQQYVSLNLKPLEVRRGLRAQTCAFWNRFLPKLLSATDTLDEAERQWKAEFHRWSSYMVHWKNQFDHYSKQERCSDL
Description: Inhibitory activity against acetylcholinesterase in rat striatal preparation

[5] = biological target: Sodium-dependent noradrenaline transporter (Homo sapiens, UniProt P23975)
Sequence of Sodium-dependent noradrenaline transporter (P23975 whole entry): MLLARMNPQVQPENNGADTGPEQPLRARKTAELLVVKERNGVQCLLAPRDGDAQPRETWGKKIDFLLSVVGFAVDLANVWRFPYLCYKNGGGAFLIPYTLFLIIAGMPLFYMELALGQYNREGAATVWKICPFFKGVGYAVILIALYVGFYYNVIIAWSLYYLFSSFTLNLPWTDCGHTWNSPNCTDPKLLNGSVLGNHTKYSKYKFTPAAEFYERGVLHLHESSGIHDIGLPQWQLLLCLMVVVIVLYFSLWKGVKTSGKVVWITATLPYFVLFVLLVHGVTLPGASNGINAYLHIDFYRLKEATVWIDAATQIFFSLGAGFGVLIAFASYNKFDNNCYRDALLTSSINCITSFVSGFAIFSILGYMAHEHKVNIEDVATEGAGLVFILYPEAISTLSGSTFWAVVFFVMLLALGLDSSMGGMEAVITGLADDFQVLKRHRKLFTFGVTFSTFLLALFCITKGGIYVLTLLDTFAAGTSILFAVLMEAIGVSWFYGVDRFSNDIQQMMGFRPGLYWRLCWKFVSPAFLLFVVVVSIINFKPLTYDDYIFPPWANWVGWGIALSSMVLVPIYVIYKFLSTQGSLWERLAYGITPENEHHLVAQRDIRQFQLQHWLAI
Description: Inhibitory activity against norepinephrine (NE) uptake in rat whole brain synaptosome preparation

[6] = biological target: T2, Adrenergic receptor alpha-2 (Rattus norvegicus, UniProt P22086+P19328+P22909); assay: Inhibitory activity against [3H]clonidine binding to Alpha-2 adrenergic receptor in rat cortex
T2 sequence (P22086 whole entry): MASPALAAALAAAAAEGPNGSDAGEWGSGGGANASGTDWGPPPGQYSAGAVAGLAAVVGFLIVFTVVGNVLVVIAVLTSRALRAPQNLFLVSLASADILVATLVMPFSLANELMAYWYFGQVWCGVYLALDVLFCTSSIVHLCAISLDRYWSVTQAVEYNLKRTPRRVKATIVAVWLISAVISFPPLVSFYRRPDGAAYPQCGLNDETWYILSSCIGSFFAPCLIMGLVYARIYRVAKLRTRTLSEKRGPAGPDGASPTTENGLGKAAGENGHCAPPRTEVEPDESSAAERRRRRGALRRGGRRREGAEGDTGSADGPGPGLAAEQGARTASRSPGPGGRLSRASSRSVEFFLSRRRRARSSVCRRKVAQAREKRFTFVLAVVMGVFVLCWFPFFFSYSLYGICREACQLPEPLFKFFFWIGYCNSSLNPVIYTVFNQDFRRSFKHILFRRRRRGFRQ
T2 sequence (P19328 whole entry): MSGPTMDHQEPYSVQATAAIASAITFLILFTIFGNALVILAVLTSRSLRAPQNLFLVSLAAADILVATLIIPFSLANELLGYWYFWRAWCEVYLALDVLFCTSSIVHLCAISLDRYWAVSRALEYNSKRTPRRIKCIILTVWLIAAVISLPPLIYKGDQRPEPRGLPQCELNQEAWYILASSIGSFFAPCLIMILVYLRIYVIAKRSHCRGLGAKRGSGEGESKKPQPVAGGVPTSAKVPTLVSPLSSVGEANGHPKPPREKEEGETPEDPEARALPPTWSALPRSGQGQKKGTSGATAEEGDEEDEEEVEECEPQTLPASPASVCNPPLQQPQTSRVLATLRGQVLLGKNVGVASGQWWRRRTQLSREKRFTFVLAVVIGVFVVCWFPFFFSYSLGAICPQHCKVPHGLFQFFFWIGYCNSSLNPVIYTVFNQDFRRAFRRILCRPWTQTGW
T2 sequence (P22909 whole entry): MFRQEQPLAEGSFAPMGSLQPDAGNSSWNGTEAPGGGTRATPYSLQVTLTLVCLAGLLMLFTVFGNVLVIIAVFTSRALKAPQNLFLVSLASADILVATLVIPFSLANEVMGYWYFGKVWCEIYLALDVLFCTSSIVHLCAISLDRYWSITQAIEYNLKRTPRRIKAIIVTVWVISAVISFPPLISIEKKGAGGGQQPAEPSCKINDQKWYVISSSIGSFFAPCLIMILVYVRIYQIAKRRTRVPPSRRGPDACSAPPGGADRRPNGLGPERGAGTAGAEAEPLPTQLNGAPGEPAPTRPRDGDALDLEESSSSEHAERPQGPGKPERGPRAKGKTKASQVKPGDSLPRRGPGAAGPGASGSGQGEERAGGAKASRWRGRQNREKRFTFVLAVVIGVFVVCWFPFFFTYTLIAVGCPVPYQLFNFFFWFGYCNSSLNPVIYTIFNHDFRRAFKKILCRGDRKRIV

[7] = biological target: T3, Adrenergic receptor alpha-1 (Rattus norvegicus, UniProt P15823+P23944+P43140); assay: Inhibitory activity against [3H]WB-4101 binding to Alpha-1 adrenergic receptor in rat whole brain membrane; format: cell membranes
T3 sequence (P15823 whole entry): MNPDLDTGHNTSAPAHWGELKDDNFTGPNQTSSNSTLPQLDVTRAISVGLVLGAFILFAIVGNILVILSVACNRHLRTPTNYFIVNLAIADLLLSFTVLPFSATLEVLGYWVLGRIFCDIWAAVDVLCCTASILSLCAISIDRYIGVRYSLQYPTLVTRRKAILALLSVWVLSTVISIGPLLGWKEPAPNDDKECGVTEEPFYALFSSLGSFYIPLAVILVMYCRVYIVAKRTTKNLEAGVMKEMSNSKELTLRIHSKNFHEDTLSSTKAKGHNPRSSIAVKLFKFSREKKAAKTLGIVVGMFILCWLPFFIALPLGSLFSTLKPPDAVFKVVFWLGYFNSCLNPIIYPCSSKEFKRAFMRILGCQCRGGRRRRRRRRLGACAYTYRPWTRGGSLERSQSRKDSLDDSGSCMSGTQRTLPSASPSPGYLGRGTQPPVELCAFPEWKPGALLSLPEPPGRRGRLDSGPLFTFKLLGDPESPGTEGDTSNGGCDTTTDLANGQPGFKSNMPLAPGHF
T3 sequence (P23944 whole entry): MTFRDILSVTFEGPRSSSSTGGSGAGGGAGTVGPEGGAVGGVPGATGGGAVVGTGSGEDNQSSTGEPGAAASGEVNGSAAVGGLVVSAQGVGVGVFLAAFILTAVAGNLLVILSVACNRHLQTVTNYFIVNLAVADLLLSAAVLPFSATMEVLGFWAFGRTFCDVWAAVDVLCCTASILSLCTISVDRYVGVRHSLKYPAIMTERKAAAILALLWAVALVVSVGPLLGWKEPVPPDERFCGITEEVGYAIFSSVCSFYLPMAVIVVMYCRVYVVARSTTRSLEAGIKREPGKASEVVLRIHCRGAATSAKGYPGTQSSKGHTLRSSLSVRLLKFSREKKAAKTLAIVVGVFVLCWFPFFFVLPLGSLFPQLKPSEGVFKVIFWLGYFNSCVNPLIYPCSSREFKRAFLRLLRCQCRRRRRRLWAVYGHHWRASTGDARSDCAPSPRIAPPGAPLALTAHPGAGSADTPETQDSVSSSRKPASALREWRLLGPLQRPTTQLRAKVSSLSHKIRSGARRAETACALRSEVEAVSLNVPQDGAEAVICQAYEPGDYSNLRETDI
T3 sequence (P43140 whole entry): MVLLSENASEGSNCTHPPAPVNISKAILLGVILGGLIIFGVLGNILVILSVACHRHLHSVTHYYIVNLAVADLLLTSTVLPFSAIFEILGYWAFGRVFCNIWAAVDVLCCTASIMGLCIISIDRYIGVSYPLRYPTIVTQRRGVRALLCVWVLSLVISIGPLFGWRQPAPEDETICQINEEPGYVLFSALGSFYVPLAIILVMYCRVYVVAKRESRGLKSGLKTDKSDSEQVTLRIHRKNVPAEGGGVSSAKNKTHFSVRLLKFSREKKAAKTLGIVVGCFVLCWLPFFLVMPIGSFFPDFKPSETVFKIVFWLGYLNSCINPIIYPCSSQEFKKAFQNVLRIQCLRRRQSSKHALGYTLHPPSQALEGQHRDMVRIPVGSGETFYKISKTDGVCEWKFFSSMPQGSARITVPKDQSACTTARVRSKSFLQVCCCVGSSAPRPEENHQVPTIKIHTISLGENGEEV

[8] = species: Mus musculus; assay: Antagonistic activity against Scopolamine induced behavioral deficits in mice; 1/6; format: functional
[9] = species: Mus musculus; conditions: dose 0.63 mg/kg; route subcutaneous
Description: Antagonistic activity against Scopolamine induced behavioral deficits in mice at dose 0.63 mg/kg sc

[10] = species: Mus musculus; conditions: dose 2.5 mg/kg; route subcutaneous
Description: Antagonistic activity against Scopolamine induced behavioral deficits in mice at dose 2.5 mg/kg sc

[11] = system: Mus musculus; assay: Antagonistic activity against Scopolamine induced behavioral deficits in mice at dose 0.02 mg/kg sc; format: functional; conditions: route subcutaneous
[12] = species: Mus musculus; assay: Antagonistic activity against Scopolamine induced behavioral deficits in mice; 3/9; format: functional
[13] = species: Mus musculus; conditions: dose 5 mg/kg; route subcutaneous
[14] = species: Mus musculus
[15] = system: Mus musculus; assay: Antagonistic activity against Scopolamine induced behavioral deficits in mice at dose 1.25 mg/kg sc; format: functional; conditions: route subcutaneous
[16] = system: Mus musculus; assay: Antagonistic activity against Scopolamine induced behavioral deficits in mice at dose 5.0 mg/kg sc; format: functional; conditions: route subcutaneous
[17] = system: Mus musculus; assay: Antagonistic activity against Scopolamine induced behavioral deficits in mice at dose […] sc; format: functional; conditions: route subcutaneous

| Compound | ED50 [1] | IC50 [2] | IC50 [3] | IC50 [4] | IC50 [5] | further results |
| --- | --- | --- | --- | --- | --- | --- |
| Brc1ccc2c(ccn2Nc2ccncc2)c1 | > 20 mg/kg | 44 µM | 7.5 µM | > 100 µM | > 20 µM |  |
| O=C(O)/C=C/C(=O)O.c1cnn(Nc2ccncc2)c1 | > 20 mg/kg | > 1000 µM | 247 µM | > 100 µM | > 20 µM |  |
| CCN(c1ccncc1)n1ccc2ccccc21 | 3.3 mg/kg | 10 µM | 2.4 µM | > 100 µM | 0.25 µM | IC50 [6]: 0.11 µM; IC50 [7]: 3.3 µM; Antagonism [8]: 1; Response [9]: 33% |
| CCCN(c1ccncc1)n1c(C)cc2ccccc21 | 3.2 mg/kg | 7.2 µM | 1.4 µM | > 100 µM | 1.1 µM | Response [10]: 20%; Response [11]: 20%; Antagonism [12]: 3; IC50 [6]: 2.3 µM; Response [13]: 23% |
| O=C(O)/C=C/C(=O)O.c1ccc2c(c1)cnn2Nc1ccncc1 | 3.8 mg/kg | 128 µM | 29 µM | > 100 µM | 17 µM | Antagonism [14]: 0 |
| CCCN(c1ccncc1)n1ccc2cc(Cl)ccc21 | > 20 mg/kg | 5.8 µM | 2.4 µM | > 100 µM | 1.9 µM | Response [15]: 20%; Antagonism [8]: 1 |
| CCCN(c1ccncc1)n1cc(C=O)c2ccccc21 | 18 mg/kg | 3.3 µM | 1.8 µM | 20 µM | 2.2 µM | Antagonism [14]: 0 |
| CCCN(c1ccncc1)n1cccn1.O=C(O)/C=C/C(=O)O | > 20 mg/kg | 127 µM | 31 µM | > 100 µM | > 20 µM |  |
| CCCN(c1ccncn1)n1ccc2ccccc21 | > 20 mg/kg | 391 µM | 11 µM | > 100 µM | 1.4 µM | Antagonism [8]: 1; Response [16]: 23% |
| CCCN(c1ccncc1)n1cc2ccccc2n1 | > 20 mg/kg | 91 µM | 15 µM | > 100 µM | 4.7 µM |  |
| O=C(O)/C=C/C(=O)O.c1ccc2c(c1)c1ccccc1n2Nc1ccncc1 | 2.3 mg/kg | 20 µM | 8.2 µM | > 100 µM | 1.4 µM | Antagonism [14]: 0 |
| C=CCN(c1ccncc1)n1ccc2ccccc21 | 4.2 mg/kg | 7.3 µM | 1 µM | > 100 µM | 6.2 µM | Antagonism [14]: 0 |
| c1ccc2nn(Nc3ccncc3)cc2c1 | > 20 mg/kg | 409 µM | 128 µM | > 100 µM | > 20 µM |  |
| COc1ccc2c(ccn2Nc2ccncc2)c1 | > 20 mg/kg | 44 µM | 7.5 µM | > 100 µM | > 20 µM |  |
| Cc1cn(Nc2ccncc2)c2ccccc12 | 1 mg/kg | 82 µM | 35 µM | > 100 µM | 12.8 µM | Response [17]: 33%; Antagonism [8]: 1 |
| O=[N+]([O-])c1ccc2c(ccn2Nc2ccncc2)c1 | > 20 mg/kg | 146 µM | 12 µM | > 100 µM | 9.9 µM |  |
| Clc1cccc(Cl)c1NC1=NCCN1 [CLONIDINE] | 0.36 mg/kg |  |  |  | > 20 µM | Antagonism [14]: 0 |
| O=C1CCCN1CC#CCN1CCCC1 [OXOTREMORINE] |  | 2.7 µM | 0.66 µM |  |  |  |
| COC(=O)[C@@H]1[C@H]2C[C@H]3c4[nH]c5ccccc5c4CCN3C[C@@H]2CC[C@@H]1O [YOHIMBINE] | > 8 mg/kg |  |  |  |  |  |
